In series [1] the test system is N2a neuronal cells. In words: Glutamate-induced neuronal cell death (LDH). The format is cell-based. The conditions noted are these: LDH 20 hr later. The procedure: Grow N2a cells in DMEM (high glucose, 225 ml), Opti-MEM (250 ml) containing 1% Fetal Bovine Serum, 2 mM L-Glutamine, 100 U/ml penicillin and 100 micrograms/mL streptomycin.
Treat N2a neuronal cells with AcA or TTF.
Two hr later add 100 micromolars of freshly diluted glutamate;
Incubate the culture for 20 hr (37° C., 5% CO2);
Measure cytotoxicity by the LDH method
N2a neuronal cells were treated with glutamate (100 μM) and TTF. Cytotoxicity was measured 20 hr later. The results are shown in FIG. 16 and are the mean±SEM of one experiment (n=8).
Achillolide A was added to N2a cells before (−2 h, −1 h) concomitant (0) or after (1 h, 2 h) the addition of glutamate. Cytotoxicity was measured 20 h later by the levels of LDH in the conditioned media. Results are means±SEM of two experiments (n=16). **P<0.01, ***P<0.001, compared to cells that were treated with glutamate only.
N2a neuronal cells were treated with Aβ25-35 (25 μM) and achillolide A. Cytotoxicity was measured 20 hr later. The results are the means±SEM of two different experiments (n=16).
N2a neuronal cells were treated with Aβ25-35 (25 μM) and achillolide A or memantine. Cytotoxicity was measured 20 hr later. The results are the mean±SEM of two different experiments (n=16) for AcA and one experiment (n=8) for memantine.

Series [2] concerns N2a neuronal cells. In words: Aβ25-35-induced neuronal cell death (LDH, crystal violet). The conditions noted are these: Aβ25-35 25 μM, 20 hr; LDH and crystal violet. Type of series: cell-based. The procedure:
Treat N2a neuronal cells with 25 micromolars of freshly diluted Aβ25-35 in the presence or absence of AcA or TTF.
N2a neuronal cells were treated with Aβ25-35 (25 μM) and TTF. Cytotoxicity (FIG. 10A) and viability (FIG. 10B) were obtained through LDH method and Crystal violet staining respectively and measured 20 hr later. The results are the mean±SEM of two different experiments (n=15).
N2a neuronal cells were treated with Aβ25-35 (25 μM) and achillolide A. Cytotoxicity (FIG. 27A) viability (FIG. 27B) and ROS levels (FIG. 27C) were measured 20 hr later. The results are the mean±SEM of two different experiments (n=16).

The test system of another series is primary astrocytes. In words: Protection of astrocytes from H2O2-induced cell death (LDH). Type of series: cell-based, rat. The conditions noted are these: LDH 20 h later. The procedure:
Primary cultures of astrocytes were prepared from cerebral cortices of 1-2 day-old neonatal Wistar rats as described (Elmann et al., 2011b). Fourteen days old astrocytes were used in the experiments. The research was conducted in accordance with the NIH guide for the care and use of laboratory animals, and was approved by the Institutional Animal Care and Use Committee of The Volcani Center, Agricultural Research Organization (IL-135/07, approval date Apr. 11, 2007). All efforts were made to minimize animal suffering and to reduce the number of animals used.
Astrocytes were re-plated at 24-well poly-D-lysine-coated plastic plates at a density of 1×10^5/well, in DMEM w/o Phenol Red containing 2% FBS, 2 mM glutamine, 100 U/mL penicillin, and 100 μg/mL streptomycin. H2O2 in the presence or absence of TTF were added, and cell viability was determined using a commercial colorimetric assay (Roche Applied Science, Germany) according to the manufacturer's instructions. This assay is based on the measurement of lactate dehydrogenase (LDH) activity released from the cytosol of damaged cells into the incubation medium. The absorbance was measured at 492 nm in a plate reader. The percentage of cytotoxicity was calculated according to the following equation, where the “ATriton-x treated cells” is the maximum releasable LDH in the cells:
In order to characterize the ability of TTF to protect against H2O2-induced astrocytic cell death, inventors assessed changes in cell viability using a model in which oxidative stress was induced by the addition of H2O2 to cultures of primary astrocytes. The concentration of H2O2 used in experiments (175-200 μM) resembles the concentration reported in rat striatum under ischemic conditions (Hyslop et al., 1995). […] Following preincubation, H2O2 was added, and cytotoxicity was determined 20 h later using the LDH assay. […] It should be noted that at all concentrations tested, the cytotoxicity of this flavonoid by itself to astrocytes was very low (<11%) as was determined by the LDH method (FIG. 2C). […] The protective activity of TTF was also compared to that of memantine, which is used as a drug for the treatment of Alzheimer's disease.
1. Produce a primary culture of rat brain glial cells according to the method described in “Protective effects of the essential oil of salvia fruticosa and its constituents on astrocytic susceptibility to hydrogen peroxide-induced cell death”. 2009. A. Elmann, S. Mordechay, M. Rindner, O. Larkov, M. Elkabetz, U. Ravid. Journal of agricultural and food chemistry. 57(15):6636-41; 2. Separate astrocytes from other cell types in the culture according to the method described in “Protective effects of the essential oil of salvia fruticosa and its constituents on astrocytic susceptibility to hydrogen peroxide-induced cell death”. 2009. A. Elmann, S. Mordechay, M. Rindner, O. Larkov, M. Elkabetz, U. Ravid. Journal of agricultural and food chemistry. 57(15):6636-41; 3. Incubate the cultured astrocytes (37° C., 5% CO2) for 2 hours with freshly diluted TTF or AcA of the invention; 4. Add 175-200 micromolars of freshly diluted H2O2; 5. Incubate the culture for 20-24 hr (37° C., 5% CO2); 6. Measure cell cytotoxicity and viability by the colorimetric lactate dehydrogenase (LDH) assay (Roche Applied science) according to the manufacturer's instructions, and the crystal violet cell staining as follows: 7. Gently draw out medium from plate; 8. Transfer plate to a chemical hood; 9. Dispense 150 μl 5% formaldehyde (in PBS) to each well and incubate 15 min at RT; 10. Pour out formaldehyde to chemical waste and gently rinse under running tap water; 11. Remove excess water by tapping plate on a tissue paper; 12. Dispense 150 μl crystal violet solution (10 gr/liter, in water) to each well; 13. Incubate 15 min at RT (in the chemical hood); 14. Pour out crystal violet to chemical waste and gently rinse under running tap water until all residual dye is removed; 15. Tap plate on a tissue paper to remove remaining water; 16. […]

[3] abbreviates: 1 μM (lowest concentration tested), compound added 2 h before H2O2.
Where [4] appears, read: 8 μM compound added 2 h before H2O2.

Regarding `COc1cc(-c2oc3cc(OC)c(OC)c(O)c3c(=O)c2O)ccc1O` [TTF, 3,5,4′-trihydroxy-6,7,3′-trimethoxyflavone], the “effect on glutamate-induced cytotoxicity” value with N2a neuronal cells [1] is reported as “prevents the cytotoxic effect at nanomolar concentrations”. Also, the “effect on Aβ25-35-induced cytotoxicity” value in the series on N2a neuronal cells [2] is listed as “prevents the cytotoxic effect at nanomolar concentrations”. Further, the “protection against H2O2-induced cell death” value in the series on primary astrocytes (setting [3]) was found to be 24%; with primary astrocytes (setting [4]) it was 92%.

With `C=C1CCC2=C(CO)C(=O)O[C@H]2/C=C(\C)[C@H](OC(C)=O)CC1=O` [achillolide A], the “effect on glutamate-induced cytotoxicity” value in the series with N2a neuronal cells [1] is listed as “prevents the cytotoxic effect at nanomolar concentrations”. Moreover, the “effect on Aβ25-35-induced cytotoxicity” value with N2a neuronal cells [2] is recorded as “prevents the cytotoxic effect at nanomolar concentrations”. The “protection of astrocytes from H2O2-induced cell death” value in the series on primary astrocytes (H2O2 200 μM added 2 h after compound) is recorded as “protects”.

Consider `CC12CC3CC(C)(C1)CC(N)(C3)C2` [memantine, reference compound], for which the results for the “protection against H2O2-induced cell death” value in the series on primary astrocytes (setting [3]) and with primary astrocytes (setting [4]) were 48% and 58%, respectively.

For the compound `O=c1c(O)c(-c2ccc(O)c(O)c2)oc2cc(O)cc(O)c12` [quercetin, 3,3′,4′,5,7-Pentahydroxyflavone, reference compound], the “protection against H2O2-induced cell death” value in the series on primary astrocytes (10 μM compound added 2 h before H2O2) was 36%.

Values taken from patent publication US11752125B2, “Anti-neuroinflammatory and protective compounds in Achillea fragrantissima” (THE STATE OF ISRAEL MINISTRY OF AGRICULTURE & RURAL …, priority 2013, dated 2023).
